The source of these data is BindingDB's records for doi:10.1016/j.bmcl.2007.05.021 (Yale University, 2007).

For the experiment, the target named is Transcription factor Jun (Homo sapiens, UniProt P05412). Briefly: Inhibition of AP1-mediated gene transcription in HepG2 cells by luciferase reporter gene assay. A general note: In a reporter assay the amount or activity of a reporter protein is the signal.
Transcription factor Jun, sequence (P05412 whole entry): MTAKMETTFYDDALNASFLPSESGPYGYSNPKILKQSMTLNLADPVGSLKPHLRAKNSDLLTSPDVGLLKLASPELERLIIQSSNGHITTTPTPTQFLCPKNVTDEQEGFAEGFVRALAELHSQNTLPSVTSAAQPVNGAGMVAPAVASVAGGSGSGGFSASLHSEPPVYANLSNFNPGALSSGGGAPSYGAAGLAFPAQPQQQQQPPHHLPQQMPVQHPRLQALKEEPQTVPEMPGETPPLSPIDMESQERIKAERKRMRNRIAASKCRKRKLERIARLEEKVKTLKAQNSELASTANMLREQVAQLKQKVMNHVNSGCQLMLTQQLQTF
For the molecule `COc1cc2c(cc1OC)-c1cc(OC)c(OC)cc1C1CN3CCC[C@H]3C=C21` (stereo partly drawn) [(S)-2,3,6,7-tetramethoxy-8b,9,10,11,12,12a-hexahydro-9a-aza-cyclopenta[b]triphenylene], the IC50 – broadly, the concentration that inhibits the measured activity by half – was greater than 300 nM.

Molecule `COc1ccc2c3c(c4cc(OC)c(O)cc4c2c1)CN1CCC[C@H]1[C@H]3O` [tylophorinidine] registered an IC50 of 65 nM. This lies in the double-digit nanomolar range.

The molecule `COc1ccc2c3c(c4cc(OC)c(O)cc4c2c1)C[N+]1([O-])CCC[C@H]1[C@H]3O` (stereo partly drawn) [tylophoridicine C] had an IC50 greater than 3000 nM.

Regarding `COc1cc2c3c(c4cc(OC)c(OC)cc4c2cc1O)CN1CCC[C@H]1[C@H]3O` [(12aS,13S)-2,6,7-trimethoxy-9,10,11,12,12a,13-hexahydro-9a-aza-cyclopenta[b]triphenylene-3,13-diol], the IC50 is greater than 1000 nM.

On to `COc1ccc2c3c(c4cc(OC)c(OC)cc4c2c1)C[N+]1([O-])CCC[C@H]1[C@@H]3O` (stereo partly drawn) [tylophoridicine F], for which the IC50 was greater than 3000 nM.

Molecule `COc1cc2c3c(c4cc(OC)c(OC)cc4c2cc1OC)[C@@H](O)[C@@H]1CCCN1C3` [(12aS,13R)-2,3,6,7-tetramethoxy-9,10,11,12,12a,13-hexahydro-9a-aza-cyclopenta[b]triphenylen-13-ol] returned an IC50 greater than 300 nM.

With `COc1ccc2c3c(c4cc(OC)c(OC)cc4c2c1)CN1CCC[C@H]1[C@@H]3O` [tylophorinine], half-maximal inhibition (IC50) was put at 110 nM.

As to `COc1ccc2c3c(c4cc(OC)c(O)cc4c2c1)CN1CCC[C@@H]1C3` [[(R)-(+)-deoxytylophorinidine], half-maximal inhibition (IC50) required 68 nM.
